In PubChem BioAssay (NCI) one finds TGI data, which are given here for 16 compounds.

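Test compounds were applied to cells in 96-well plates for 48 hours at 5 doses. At the TGI there is no net growth.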

Some test systems named below: 786-0 renal; UACC-257 melanoma; HL-60(TB) leukemia; CAKI-1 renal; OVCAR-4 ovarian; T-47D breast; HCT-116 colon; U251 CNS; NCI-H522 lung; A498 renal.
Holding throughout (test): NCI anticancer screen, dose series, 48 h

Regarding `Nc1nc(-c2ccccc2)cc(-c2ccc(F)cc2)c1-c1ccc(Cl)cc1`, the TGI in the assay on 786-0 renal, in the assay with UACC-257 melanoma, in the assay with HL-60(TB) leukemia, in the assay on CAKI-1 renal, in the assay on OVCAR-4 ovarian and with T-47D breast was above 100 µM in each case. Besides, the TGI with HCT-116 colon and in the assay with U251 CNS was above 100 µM in each case.
As for `OCCOCn1nc(-c2ccccc2)nc1-c1cnccn1`, the TGI in the assay on 786-0 renal, in the assay with NCI-H522 lung, with UACC-257 melanoma, in the assay on HL-60(TB) leukemia, in the assay with OVCAR-4 ovarian and with T-47D breast was above 100 µM each time. The TGI with HCT-116 colon and in the assay with U251 CNS was above 100 µM in each case.
On to `O=c1[nH]c(=O)n(COCCO)cc1-c1ccccc1`, for which the TGI in the assay with 786-0 renal, with NCI-H522 lung, in the assay with UACC-257 melanoma, in the assay on HL-60(TB) leukemia, with CAKI-1 renal and with OVCAR-4 ovarian was above 100 µM each time. Further, the TGI in the assay on T-47D breast, with HCT-116 colon and in the assay on U251 CNS was above 100 µM throughout.
Regarding `CC1(C)OC2C(CO)OC(/N=C(\NC#N)Oc3ccccc3)C2O1` (stereo not given), the TGI in the assay with UACC-257 melanoma, in the assay on HL-60(TB) leukemia, in the assay on OVCAR-4 ovarian, in the assay on HCT-116 colon and with U251 CNS was above 100 µM throughout.
For the compound `Nc1c(Cl)ncnc1NCC1(CO)CCC1`, the TGI in the assay with 786-0 renal, in the assay on A498 renal, in the assay with NCI-H522 lung, in the assay on UACC-257 melanoma, in the assay with HL-60(TB) leukemia and with OVCAR-4 ovarian was above 100 µM throughout. Further, the TGI in the assay with HCT-116 colon and in the assay with U251 CNS was above 100 µM each time.
Consider `c1ccc(C[P+]2(c3ccccc3)CCCCC2)cc1`, for which the TGI in the assay on 786-0 renal, in the assay on A498 renal, in the assay on NCI-H522 lung, in the assay on UACC-257 melanoma, with HL-60(TB) leukemia and with OVCAR-4 ovarian was above 100 µM each time. The TGI in the assay with HCT-116 colon and with U251 CNS was above 100 µM each time.
On to `Cn1c(=O)c2[nH]c(Nc3ccccc3)nc2n(C)c1=O`, for which the TGI in the assay on 786-0 renal, in the assay on UACC-257 melanoma, in the assay with HL-60(TB) leukemia, with CAKI-1 renal, with OVCAR-4 ovarian and with T-47D breast was above 10 µM each time.
Turning to `O=C1CCCc2ccc3c(c21)CC1(Cc2cc4c(cc2C1)CCCC4)C3`, the TGI in the assay with 786-0 renal is 33 µM; in the assay on A498 renal it was above 100 µM; in the assay on NCI-H522 lung, 35.5 µM; with UACC-257 melanoma it was 47.8 µM; in the assay on HL-60(TB) leukemia, 26.3 µM; in the assay on OVCAR-4 ovarian, 50.9 µM. Also, the TGI in the assay on T-47D breast worked out at 23.2 µM; in the assay on HCT-116 colon it was 34.6 µM; in the assay with U251 CNS, 44.4 µM.
With `NC(=O)c1ncn(C2CCC(CP(=O)(O)O)C2)c1N` (stereo not given), the TGI in the assay with 786-0 renal, in the assay on UACC-257 melanoma, in the assay on CAKI-1 renal, in the assay with OVCAR-4 ovarian, in the assay with T-47D breast and in the assay on HCT-116 colon was above 100 µM in each case. The same compound had a TGI in the assay with U251 CNS above 100 µM.
`COc1c2c(cc3oc(=O)ccc13)OC(C)(C)C=C2`: the TGI stood at 63.8 µM in the assay with 786-0 renal; 63.9 µM in the assay on NCI-H522 lung; 85.2 µM in the assay on UACC-257 melanoma; 45.2 µM in the assay on HL-60(TB) leukemia; 29 µM with CAKI-1 renal; 23.6 µM in the assay with T-47D breast. In addition, the TGI with HCT-116 colon was determined as 40.8 µM; in the assay with U251 CNS it was 78.5 µM.
Regarding `CCOC(=O)Cn1c(=O)c2cc(C)cc3c(Cl)nc4c(OC)c(OC)cc1c4c32`, the TGI with 786-0 renal, in the assay with NCI-H522 lung, with UACC-257 melanoma, in the assay with HL-60(TB) leukemia, with CAKI-1 renal and in the assay with OVCAR-4 ovarian was above 100 µM each time. The TGI in the assay on HCT-116 colon and with U251 CNS was above 100 µM each time.
As to `O=C1CCCn2c3ccccc3c3ccnc1c32`, the TGI in the assay on A498 renal is 32.2 µM; in the assay with NCI-H522 lung, above 100 µM; with UACC-257 melanoma, above 56.1 µM; in the assay on HL-60(TB) leukemia, 23 µM; with CAKI-1 renal, above 46.6 µM; in the assay on OVCAR-4 ovarian, above 100 µM. For the same compound, the TGI in the assay with HCT-116 colon and with U251 CNS was above 100 µM in each case.
As to `O=C(CSCC(=O)N/N=C/c1ccc(F)cc1)N/N=C/c1ccc(F)cc1`, the TGI in the assay with 786-0 renal, in the assay on A498 renal, with NCI-H522 lung, with UACC-257 melanoma, with HL-60(TB) leukemia and with OVCAR-4 ovarian was above 100 µM throughout. Besides, the TGI in the assay on T-47D breast, in the assay on HCT-116 colon and with U251 CNS was above 100 µM in each case.
In the case of `CCNc1nc2ccccc2nc1NCC`, the TGI in the assay on 786-0 renal, in the assay on A498 renal, with NCI-H522 lung, with UACC-257 melanoma, in the assay with HL-60(TB) leukemia and in the assay with CAKI-1 renal was above 100 µM each time. The TGI with HCT-116 colon and in the assay on U251 CNS was above 100 µM in each case.
Consider `COc1cc(/C=C/C(=O)OC[C@]23O[C@H]2[C@@H](OC2OC(C)C(O)C(O)C2O)C2C=CO[C@@H](OC4OC(CO)C(O)C(O)C4O)C23)ccc1O` (stereo not given in full), for which the TGI with 786-0 renal, with NCI-H522 lung, in the assay on HL-60(TB) leukemia, in the assay on OVCAR-4 ovarian, in the assay with T-47D breast and in the assay on HCT-116 colon was above 100 µM each time. For the same compound, the TGI in the assay on U251 CNS is above 100 µM.
As for `COC(=O)[C@@]12CC3CN(Cc4c1[nH]c1ccccc41)C2CC3=O`, the TGI in the assay with 786-0 renal, in the assay on NCI-H522 lung, in the assay on UACC-257 melanoma, with HL-60(TB) leukemia, with CAKI-1 renal and with OVCAR-4 ovarian was above 100 µM each time. Besides, the TGI in the assay on T-47D breast, with HCT-116 colon and with U251 CNS was above 100 µM throughout.
